# Data as given in patent publication US8257915B2, “Farnesyltransferase inhibitors for treatment of laminopathies, cellular aging and atherosclerosis” (Progeria Research Foundation, Inc., priority 2002, dated 2012).
# Like-named read-outs stand apart in the source and are kept apart here.
# Legend:
# [1] = cited from earlier work
# [2] = test system: normal fibroblasts (GM08398) transiently expressing GFP-lamin A or GFP-progerin; assay: Nuclear morphology and GFP localization in normal fibroblasts transiently expressing GFP-lamin A or GFP-progerin, exposed to FTI; type: cell-based, human; details: 100 nM FTI, 72 hours
# Experimental: (§1) FIG. 7 illustrates the effect of a 72 hour exposure to 100 nM FTI (PD169451) on GFP-lamin A (A) and GFP-progerin (B) localization, protein processing (C) and nuclear morphology (D and E). Confocal microscopy was used to examine the effects of FTIs on transiently-expressed GFP-lamin A (A) and GFP-progerin (B) in normal fibroblasts. Three focal planes are shown—top, middle and bottom (from left to right). Exposure to 100 nM FTI for 72 hours caused about half of the endogenous lamin A to be unprocessed pre-lamin A in normal and HGPS fibroblasts (C). Exposure to the FTI increased the percent of mock transfected cells and GFP-lamin A expressing cells with abnormal nuclear morphology (D). However, the percentage of cells expressing GFP-progerin with an abnormal nuclear morphology decreased by 33% when exposed to the FTI for 72 hours.
# GFP localization: Normal and HGPS fibroblasts were plated on coverslips in six well plates or in chambered microscope slides (BD Biosciences) 24 hours prior to transfection. Fibroblasts were transiently transfected with the GFP-lamin A or GFP-progerin expression constructs using FUGENE®6 transfection reagent (Roche). Seventy-two hours later the cells were washed two times with PBS (pH 7.2) and fixed for 20 minutes at 4° C. with 4% paraformaldehyde in PBS containing 62.5 µg/ml LPC palmitoyl and 1 U/ml rhodamine phalloidin (Molecular Probes) to stain the cytoskeleton. Following three washes with PBS, Prolong Gold mounting medium with DAPI (Molecular Probes) was applied to the coverslips which were then inverted and placed on microscope slides.
# Normal and HGPS fibroblasts were plated on coverslips in 6 well plates 24 hours prior to transfection. Normal fibroblasts were transiently transfected with the GFP-lamin A or GFP-progerin expression constructs using FUGENE®6 transfection reagent (Roche). The following day, the medium was replaced with growth medium containing 0 nM, 100 nM, 500 nM or […] of the FTI, PD169451. […]
# [3] = test system: HGPS fibroblasts (AG11498, P01, HGADFN136, HGADFN004); assay: Nuclear morphology of HGPS fibroblasts maintained in FTI; type: cell-based, human
# Experimental: (§2) FIG. 10 illustrates the effect of long-term exposure to low doses of FTI (PD169451) on the nuclear morphology of normal (GM08398 and HGMDFN090) and HGPS (AG11498, P01, HGADFN136 and HGADFN004) fibroblasts. Fibroblasts were maintained in medium with 0 nM, 10 nM or 100 nM FTI. Cultures were plated in chambered microscope slides 24 hours prior to fixing with 4% paraformaldehyde for nuclear morphology studies. **—Too few cells to count. […] All cell lines were passage 6 at the beginning of the analysis except for HGADFN004, which was at passage 12.
# (§3) Normal and HGPS fibroblasts were maintained in T75 tissue culture flasks with 0 nM, 10 nM, and 100 nM concentrations of the FTI, PD169451, added to the growth medium. The medium was changed every 2 days and the cells were split when they were approximately 80% confluent. Three days prior to each time point, a flask was trypsinized and cells were placed in chambered microscope slides (BD Biosciences) and maintained in the appropriate FTI concentration. Seventy-two hours later the cells were washed two times with PBS (pH 7.2) and fixed for 20 minutes at 4° C. with 4% paraformaldehyde in PBS containing 62.5 µg/ml LPC palmitoyl and 1 U/ml rhodamine phalloidin (Molecular Probes) to stain the cytoskeleton. Following three washes with PBS, […] of ProLong Gold mounting medium with DAPI (Molecular Probes) was applied and the cells were overlaid with a coverslip.
# [4] = test system: normal fibroblasts (GM08398 and HGMDFN090); assay: Nuclear morphology of normal fibroblasts maintained in FTI; type: cell-based, human
# Experimental: as §2, §3
# [5] = test system: normal fibroblasts (GM08398) stably expressing GFP-lamin A, GFP-progerin and GFP-LA(L647R); assay: Nuclear morphology and GFP localization in normal fibroblasts stably expressing GFP fusions (retroviral TET-OFF), exposed to FTI; type: cell-based, human
# Experimental: FIG. 11 illustrates the effect of the FT1, PD169451, on the nuclear morphology of normal fibroblasts (GM08398) stably expressing GFP-lamin A, GFP-progerin and GFP-LA(L647R) using a retroviral TET-OFF® expression vector system (Clontech). Fibroblasts were maintained in medium with 0 nM, 10 nM or 100 nM FTI for 6 days.
# Cultures were plated in chambered microscope slides 24 hours prior to fixing with 4% paraformaldehyde for nuclear morphology studies. Cells were maintained in three predetermined tetracycline concentrations, 0 mM for full expression (A), 0.05 mM for intermediate expression levels (B), and 8 mM for very low expression levels (C). […] Analysis of nuclear morphology was performed in a double blinded fashion with at least 70 cells analyzed per sample.
# FIG. 12 illustrates the effect of FTI on the distribution of GFP signal in normal fibroblasts (GM08398) expressing GFP-lamin A (panels A, B and C), GFP-progerin (D, E and F) and GFP-LA(L647R) (G, H, and I) using a retroviral TET-OFF® expression vector system with various FTI concentrations. Fibroblasts were maintained in medium with 0 nM (A, D, G), 10 nM (B, E, and H) or 100 nM (C, F and I) FTI for six days. Expression levels of the GFP fusions were maintained at levels similar to endogenous levels of lamin A by the addition of 0.05 mg/ml tetracycline. Signals were visualized with a Zeiss AXIOPHOT™ Fluorescent microscope and imaging was performed using the Olympus DP70 Digital Camera System.
# Retroviral Constructs: The pRevTetOff vector and pRevTRE constructs were transfected using FUGENE®6 transfection reagent into the Amphotropic Phoenix retroviral packaging line (Peter Nolan, Stanford University). Forty-eight hours after transfection the media containing retrovirus was filtered through a 0.22 micron filter and used immediately or stored at −70° C. Retroviral infection was performed by exposing target cells to a 1:1 mix of retroviral supernatant and growth medium with 4 μg/ml polybrene.
# By way of example, GFP-lamin A and GFP-progerin were expressed from TET-OFF® retroviral expression vector constructs that allowed for sustained expression and modulation of expression to address the possibility of results due to over-expression of the fusion proteins when the proteins were transiently expressed. In addition, a cleavage minus mutant, GFP-LA(L647R), was included to examine the effect of retaining the farnesyl group without the 50 amino acid deletion found in progerin.
# endogenous lamin A = assay: Lamin A processing (pre-lamin A) by immunoblot after FTI exposure; type: cell-based, human; details: 100 nM FTI, 72 hours; normal and HGPS fibroblasts
# Experimental: as §1
# Immunoblotting: Proteins were transferred to Immobilon-P membrane (Millipore) using a Trans-Blot semi-dry electrophoretic transfer cell (BioRad) blocked with 5% dry milk in TBST and probed with lamin A/C specific antibodies according to standard protocols.
# [6] = 10 nM FTI, 6 days, intermediate expression (0.05 mg/ml tetracycline), p<0.0001
compound,measurement,setting,value
Cn1cncc1[C@@](N)(c1ccc(Cl)cc1)c1ccc2c(c1)c(-c1cccc(Cl)c1)cc(=O)n2C [tipifarnib],tolerability,"[1]; Phase III trials, including trials involving children",well tolerated
same,tolerability,[1]; clinical trials,well tolerated
CC(C)(CNC(=O)CN(Cc1ccc(OCc2ccccc2)cc1)C(=O)[C@H](Cc1cnc[nH]1)NC(=O)OCc1ccccc1)c1ccccc1 [PD169451],effect on the localization of transiently expressed GFP-lamin A and GFP-progerin,[2],significant effect
same,percent of mock transfected cells and GFP-lamin A expressing cells with abnormal nuclear morphology,[2],increased
same,decrease in the percentage of cells expressing GFP-progerin with an abnormal nuclear morphology,[2]; normal fibroblasts transiently expressing GFP-progerin,33%
same,percentage of abnormal nuclei in HGPS fibroblasts and in normal fibroblasts expressing GFP-progerin,[3]; 10 nM FTI,significantly lowered
same,drop in abnormal morphology,"[3]; 10 nM FTI, 14 days, HGPS cell line HGADFN004",12%
same,decrease in abnormal nuclei,"[3]; 10 nM FTI, 14 days, three HGPS lines each",≥ 70%
same,reduction in the percent of cells with abnormal nuclei,"[3]; 10 nM FTI, two days, four HGPS cell lines",~40%
same,growth of HGADFN004 line,"[3]; 100 nM FTI, 14 day time point",failed to grow
same,drop in the percent of cells with abnormal nuclear morphology,"[3]; AG11498 line, various FTI concentrations, three days",≤ 40%
same,FTI dose that caused cells to stop dividing after a week to 10 days,"[3]; long-term exposure, normal and HGPS fibroblasts",greater than 200 nM
same,nuclear morphology phenotype,[3]; normal fibroblasts expressing progerin and HGPS fibroblasts (summary of Example 3),significant improvement
same,"abnormal nuclear morphology in normal fibroblasts, dose dependence","[4]; 0, 10, 100 nM FTI",dose dependent manner
same,nuclear morphology of normal cells,[4]; 10 nM FTI,did not substantially alter
same,abnormal nuclear morphology in normal fibroblasts,"[4]; high doses of the FTI, greater than 200 nM",increase in abnormal nuclear morphology
same,"reduction of percent abnormal nuclei, GFP-LA(L647R)",[5]; [6],67%
same,"reduction of percent abnormal nuclei, GFP-progerin",[5]; [6],71%
same,reorganization of GFP signal for any of the fusion proteins,"[5]; 10 nM FTI, stable expression",did not lead to this drastic reorganization
same,effect on abnormal nuclear morphology at very high expression levels of GFP-progerin or GFP-LA(L647R),"[5]; 10 nM FTI, no tetracycline",could not overcome
same,localization of GFP-lamin A and GFP-progerin,"[5]; 100 nM FTI, stable expression",localize to intranuclear filaments
same,localization of GFP-tagged L647R mutant,"[5]; 100 nM FTI, stable expression",redistributed to intranuclear filaments
same,improvement in abnormal nuclear morphology at 100 nM in comparison to 10 nM,"[5]; 100 nM FTI, intermediate expression of GFP-progerin and GFP-LA(L647R)",less profound
same,endogenous lamin A present as unprocessed pre-lamin A,endogenous lamin A,about half
